Series [1] is described as follows: Plasma concentration of RM-133 in mice at different injection doses. It counts as in vivo, Balb/c mice. As for the experimental part:
Eight ♀ Balb/c mice weighing approximately 20 g were separated in 4 groups. Mice in each group received a single s.c. injection of RM-133 (30, 60, 120, or 480 mg/kg). The vehicle used was propylene glycol:EtOH (92:8) and injection volume was 0.1 mL for all concentrations except at 480 mg/kg, where 0.2 mL was used. Blood was collected by cardiac puncture after 12 h, and the plasma concentration of RM-133 determined by LC-MS/MS as above.

Series [2] can be described thus: RM-133 plasma and tumor concentration in nude mice after the xenograft experiment (second part), LC-MS/MS. Particulars: for concentration at 12 h: 12 h after single s.c. 60 mg/kg (0.1 mL). The format is in vivo, nu/nu nude mice. As to the method: At the end of the xenograft experiment, and in order to obtain preliminary pharmacological data, mice in treated groups were separated into 4 subgroups of 2–3 mice each, injected s.c. with RM-133 (60 mg/kg) and sacrificed after 3, 7, 12, or 24 h. In parallel, mice in the control group were also separated into 4 subgroups, treated with RM-133 (60 mg/kg) as for treated mice, and sacrificed at the same intervals. Blood was collected from mice by cardiac puncture, and the plasma concentration of RM-133 determined by liquid chromatography–tandem mass spectrometry (LC-MS/MS) as previously reported. Tumors of the mice in the treated group were collected at necropsy, pooled, homogenized according to a known procedure and the quantity of RM-133 was determined by LC-MS/MS.

The test system of a further series is OVCAR-3 cells. As to the kind of experiment: MTS cell proliferation (viability) assay, OVCAR-3. It counts as cell-based. To be noted: Homo sapiens, 72 h incubation. As for the experimental part:
Human ovarian (OVCAR-3) and pancreatic (PANC-1) cancer cells were purchased from the American Type Culture Collection (ATCC, Rockville, MD) and maintained in exponential growth in a 5% CO2 humidified atmosphere at 37°C. OVCAR-3 cells were routinely grown in RPMI-1640 medium (Sigma, St. Louis, MO) supplemented with 20% FBS, L-glutamine (2 mM), antibiotics (100 IU penicillin/mL and 100 μg streptomycin/mL), insulin (50 ng/mL), and estradiol (1 nM). For OVCAR-3 cell proliferation assays, the medium used was identical, except for the omission of estradiol. […]
The cell proliferation assay was performed with a colorimetric method using 3-(4,5-dimethylthiazol-2-yl)-5-(3-carboxymethoxyphenyl)2-(4-sulfophenyl)-2H-tetrazolium (MTS) (Cell Titer 96 Aqueous, Promega, Madison, WI). […] MTS is converted to water-soluble colored formazan by dehydrogenases present in metabolically active cells, and therefore, the MTS assay allows the immediate determination of absorbance of the soluble formazan directly in the cell medium and thus the measurement of viable cells. The A 490 of the medium was determined using a 96-well microplate reader INFINITE 200 PRO series (TECAN, Männedorf, Switzerland). The IC50 value of RM-133 was determined for each of the two cell lines using the GraphPad Prism 7 software (GraphPad Software, Inc., San Diego, CA).

pIC50: −log10 of the molar value. “And” between values parts separate entries of the source, which are not always exact repeats. Equal entries are not always repeated.

As usually defined, the pIC50 is the negative decadic logarithm of the IC50, by convention in mol/L. Read a low pIC50 as a large IC50. On to `C#C[C@]1(O)CC[C@H]2[C@@H]3CC[C@H]4C[C@H](O)[C@@H](N5CCN(C(=O)[C@@H]6CCCN6C(=O)c6ccc7ccccc7n6)CC5)C[C@]4(C)[C@H]3CC[C@@]21C` [RM-133], for which the tolerance result in series [1] (480 mg/kg s.c. in 0.2 mL propylene glycol:EtOH (92:8), motion discomfort, same with vehicle alone) was “not tolerated”. For the same compound, in series [1] (12 h after single s.c. 30 mg/kg, propylene glycol:EtOH (92:8)), the “plasma concentration as percentage of the injected amount” value turned out to be 17%. Further, the concentration at 12 h in series [1] (female, mouse, plasma, sc, 12 h after single s.c. 30 mg/kg, propylene glycol:EtOH (92:8), Balb/c mice) is 167 ng/mL; in series [2] (nu/nu nude, mouse, plasma, sc, 60 mg/kg, group A: previously treated daily for 21 days), 178 ng/mL; in series [2] (nu/nu nude, mouse, plasma, sc, 60 mg/kg, group B: not previously exposed to the drug), 91 ng/mL. The accumulation in blood entry in series [2] (21 days-xenograft experiment, 60 mg/kg daily s.c.) is given as “does not accumulate in blood”. In addition, the “concentration inside the tumor” value in series [2] (OVCAR-3 tumors of treated mice collected at necropsy, pooled) was 1.2 μM and 773 ng/g. Besides, the concentration at 24 h in series [2] (nu/nu nude, mouse, plasma, sc, 60 mg/kg, single s.c. 60 mg/kg in 0.1 mL propylene glycol:EtOH (92:8), 24 h, nude mice) is 81 ng/mL. For the same compound, in series [2] (single s.c. 60 mg/kg in 0.1 mL propylene glycol:EtOH (92:8), 3 h, nude mice), the “maximum average plasma concentration” value amounted to 460 ng/mL. Further, the negative-log IC50 (pIC50) in the series on OVCAR-3 cells is 6.10.

The values above are taken from paper PMC4682813, “The Aminosteroid Derivative RM-133 Shows In Vitro and In Vivo Antitumor Activity in Human Ovarian and Pancreatic Cancers” (PLoS ONE, 2015).
